Experimental data published in paper PMC3740188 (Protein & cell, 2013).

Experiments:
Assay type in all cases: binding
[1] = molecular target: T1, AT cpn-α (thermosome cpn-α) (Acidianus tengchongensis, UniProt Q877H0); test: nucleotide-induced oligomer assembly by native PAGE; details: 2 mM nucleotide, 20 mM MgCl2, pH 7.5, 37 °C, 8 h
T1 sequence (Q877H0 1-563): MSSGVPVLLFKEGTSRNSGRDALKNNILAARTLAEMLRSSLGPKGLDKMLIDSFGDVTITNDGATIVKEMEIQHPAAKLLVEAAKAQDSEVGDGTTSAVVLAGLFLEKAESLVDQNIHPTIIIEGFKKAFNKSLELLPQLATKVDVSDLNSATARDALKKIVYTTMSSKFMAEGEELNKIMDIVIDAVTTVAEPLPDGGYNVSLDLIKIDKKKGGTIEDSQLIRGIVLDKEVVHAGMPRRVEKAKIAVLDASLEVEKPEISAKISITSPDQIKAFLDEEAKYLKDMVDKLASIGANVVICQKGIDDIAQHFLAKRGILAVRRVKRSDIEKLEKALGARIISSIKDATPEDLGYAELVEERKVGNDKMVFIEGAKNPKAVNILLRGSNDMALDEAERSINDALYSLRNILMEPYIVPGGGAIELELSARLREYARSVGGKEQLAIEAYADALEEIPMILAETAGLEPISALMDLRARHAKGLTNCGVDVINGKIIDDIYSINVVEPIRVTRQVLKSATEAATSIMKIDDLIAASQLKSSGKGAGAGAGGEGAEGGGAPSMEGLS

[2] = molecular target: T2, AT cpn-β (thermosome cpn-β) (Acidianus tengchongensis, UniProt Q877H2); test: as above; details: 2 mM nucleotide, 20 mM MgCl2, pH 7.5, 37 °C, 8 h
T2 sequence (Q877H2 1-553): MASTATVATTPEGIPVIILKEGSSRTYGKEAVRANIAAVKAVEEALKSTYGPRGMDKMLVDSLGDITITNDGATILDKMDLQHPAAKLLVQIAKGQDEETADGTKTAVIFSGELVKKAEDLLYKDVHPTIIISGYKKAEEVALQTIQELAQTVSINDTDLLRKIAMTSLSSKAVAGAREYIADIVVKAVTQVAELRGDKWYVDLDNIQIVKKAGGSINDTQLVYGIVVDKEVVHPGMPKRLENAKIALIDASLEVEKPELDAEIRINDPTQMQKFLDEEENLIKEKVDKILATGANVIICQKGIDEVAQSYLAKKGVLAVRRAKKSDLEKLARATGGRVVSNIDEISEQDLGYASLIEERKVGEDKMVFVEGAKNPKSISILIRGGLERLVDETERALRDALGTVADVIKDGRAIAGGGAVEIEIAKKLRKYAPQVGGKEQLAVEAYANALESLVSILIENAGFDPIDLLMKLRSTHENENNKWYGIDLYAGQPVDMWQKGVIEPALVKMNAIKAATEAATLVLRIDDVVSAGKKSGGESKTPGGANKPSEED

[3] = molecular target: T2, AT cpn-β (thermosome cpn-β); test: cryo-EM reconstruction with MDFF model; details: pH 7.5, 12 mM Mg, 50 mM KCl; 6.2/5.0 Å resolution
[4] = molecular target: T2, AT cpn-β (thermosome cpn-β); test: heating […] min then native PAGE of oligomer dissociation; details: ADP in place of ATP; pH 7.5, MgCl2
[5] = molecular target: T1, AT cpn-α (thermosome cpn-α); test: as above; details: ADP in place of ATP; pH 7.5, MgCl2

Row | Structure (SMILES) | nucleotide-induced oligomer assembly by native PAGE [1] | nucleotide-induced oligomer assembly by native PAGE [2] | cryo-EM reconstruction with MDFF model [3] | Td [4] | Td [5]
1 | Nc1nc2c(ncn2[C@@H]2O[C@H](COP(=O)(O)OP(=O)(O)OP(=O)(O)O)[C@@H](O)[C@H]2O)c(=O)[nH]1 [GTP] | even GTP could induce the assembly of thermosomes | even GTP could induce the assembly of thermosomes |  |  | 
2 | Nc1ncnc2c1ncn2[C@@H]1O[C@H](COP(=O)(O)OP(=O)(O)OP(=O)(O)O)[C@@H](O)[C@H]1O [ATP] |  |  | cryoEM reconstructions of cpn-β in the apo or ATP-binding state |  | 
3 | Nc1ncnc2c1ncn2[C@@H]1O[C@H](COP(=O)(O)OP(=O)(O)O)[C@@H](O)[C@H]1O [ADP] |  |  |  | ADP binding also increased the thermal stability of cpn-α and cpn-β | ADP binding also increased the thermal stability of cpn-α and cpn-β
4 | Nc1ncnc2c1ncn2[C@@H]1O[C@H](COP(=O)(O)OP(=O)(O)NP(=O)(O)O)[C@@H](O)[C@H]1O [AMP-PNP] | all nucleotides could efficiently induce the assembly of thermosomes for both cpn-α | all nucleotides could efficiently induce the assembly of thermosomes for both cpn-α |  |  | 
